Measurements: paper PMC7109250, “Cloning and Functional Characterization of Three Odorant Receptors From the Chinese Citrus fly Bactrocera minax (Diptera: Tephritidae)” (Frontiers in Physiology, 2020)

What follows are molecules tested against T1, BminOR3 (Bactrocera minax, UniProt A0A6N0A5L8) (assay: two-electrode voltage clamp in Xenopus oocytes co-expressing BminOR3/BminOrco, dose-response).
T1 construct: gene OR5; full-length ORF (450 amino acid residues), GenBank MN537976; with BminOrco
T1 sequence (A0A6N0A5L8 1-451): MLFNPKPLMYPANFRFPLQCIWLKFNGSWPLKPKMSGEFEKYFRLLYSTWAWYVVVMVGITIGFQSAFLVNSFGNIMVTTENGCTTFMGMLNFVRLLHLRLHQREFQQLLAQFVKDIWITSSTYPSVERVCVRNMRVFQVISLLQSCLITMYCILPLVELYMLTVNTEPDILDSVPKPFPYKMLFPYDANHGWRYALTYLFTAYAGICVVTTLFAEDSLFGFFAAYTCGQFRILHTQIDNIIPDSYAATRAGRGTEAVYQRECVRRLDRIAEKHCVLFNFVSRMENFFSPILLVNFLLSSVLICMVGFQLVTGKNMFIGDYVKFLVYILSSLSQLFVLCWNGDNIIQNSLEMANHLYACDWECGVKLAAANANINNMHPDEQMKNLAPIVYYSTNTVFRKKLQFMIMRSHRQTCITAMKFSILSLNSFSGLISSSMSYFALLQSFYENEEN
T1 sequence (A0A3G2LEL3 1-517 partner): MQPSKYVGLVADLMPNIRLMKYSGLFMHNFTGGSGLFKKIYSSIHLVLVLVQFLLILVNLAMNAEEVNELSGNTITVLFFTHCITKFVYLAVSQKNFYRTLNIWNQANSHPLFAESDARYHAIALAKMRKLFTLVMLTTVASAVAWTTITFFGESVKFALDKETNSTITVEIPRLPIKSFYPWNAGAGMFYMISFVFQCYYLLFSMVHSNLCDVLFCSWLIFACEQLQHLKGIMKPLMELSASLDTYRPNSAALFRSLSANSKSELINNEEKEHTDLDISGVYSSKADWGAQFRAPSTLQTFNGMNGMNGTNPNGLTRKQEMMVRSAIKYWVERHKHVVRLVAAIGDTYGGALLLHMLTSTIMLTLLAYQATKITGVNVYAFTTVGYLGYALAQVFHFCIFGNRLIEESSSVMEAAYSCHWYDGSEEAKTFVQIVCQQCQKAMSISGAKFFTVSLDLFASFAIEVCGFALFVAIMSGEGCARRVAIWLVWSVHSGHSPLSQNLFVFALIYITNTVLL
Type: cell-based
From the text: two-electrode voltage clamp in Xenopus oocytes co-expressing BminOR3/BminOrco, dose-response on BminOR3 | Dose-response curve of BminOR3/BminOrco Xenopus oocytes to 1-octen-3-ol.

| SMILES | EC50 [µM] |
| --- | --- |
| C=CC(O)CCCCC (stereo not shown) [compound 2, 1-octen-3-ol] | 0.347 |

What follows are molecules tested against T2, BminOR16 (Bactrocera minax, UniProt A0A6N0A5X5) (assay: two-electrode voltage clamp in Xenopus oocytes, mean current at […]).
T2 construct: gene OR16; full-length ORF (404 amino acid residues), GenBank MN537977; with BminOrco
T2 sequence (A0A6N0A5X5 1-405): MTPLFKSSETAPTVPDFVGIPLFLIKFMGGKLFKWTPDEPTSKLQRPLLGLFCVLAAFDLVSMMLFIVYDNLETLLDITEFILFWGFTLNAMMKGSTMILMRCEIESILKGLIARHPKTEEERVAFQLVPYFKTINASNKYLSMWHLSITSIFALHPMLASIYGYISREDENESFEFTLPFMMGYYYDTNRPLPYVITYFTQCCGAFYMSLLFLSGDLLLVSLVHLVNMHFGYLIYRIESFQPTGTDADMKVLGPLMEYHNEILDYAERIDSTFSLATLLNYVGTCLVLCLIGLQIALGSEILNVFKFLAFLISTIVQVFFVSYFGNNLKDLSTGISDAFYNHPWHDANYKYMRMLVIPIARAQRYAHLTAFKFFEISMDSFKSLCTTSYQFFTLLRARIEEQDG
T2 sequence (A0A3G2LEL3 1-517 partner): T1 sequence (A0A3G2LEL3 1-517 partner)
Type: cell-based

| SMILES | two-electrode voltage clamp in Xenopus oocytes, mean current at 10^-4 M [nA] |
| --- | --- |
| CCCCCCCCCCCO [compound 35, undecanol] | 87 |

What follows are molecules tested against T3, BminOR12 (Bactrocera minax, UniProt A0A6H1V5Y2) in the same assay as above.
T3 construct: gene OR12; full-length ORF (415 amino acid residues), GenBank MN855530; with BminOrco
T3 sequence (A0A6H1V5Y2 1-415): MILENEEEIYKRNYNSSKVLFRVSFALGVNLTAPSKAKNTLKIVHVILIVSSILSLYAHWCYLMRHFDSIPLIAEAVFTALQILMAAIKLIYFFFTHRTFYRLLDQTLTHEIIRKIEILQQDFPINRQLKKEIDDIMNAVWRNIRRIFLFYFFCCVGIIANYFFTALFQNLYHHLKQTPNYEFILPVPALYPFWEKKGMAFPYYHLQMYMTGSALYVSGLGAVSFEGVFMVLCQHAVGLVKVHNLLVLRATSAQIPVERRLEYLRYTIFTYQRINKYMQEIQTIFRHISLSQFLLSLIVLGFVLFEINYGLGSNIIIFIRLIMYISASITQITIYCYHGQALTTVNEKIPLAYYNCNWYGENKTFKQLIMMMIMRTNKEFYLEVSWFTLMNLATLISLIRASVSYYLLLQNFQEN
T3 sequence (A0A3G2LEL3 1-517 partner): T1 sequence (A0A3G2LEL3 1-517 partner)
Type: cell-based
From the text: The respective mean response values of these are | BminOR12/BminOrco responded to eight compounds: benzyl alcohol, (S)-(+)-carvone, 1-octanol, butyl propionate, butyl acrylate

| SMILES | two-electrode voltage clamp in Xenopus oocytes, mean current at 10^-4 M [nA] |
| --- | --- |
| C=C(C)[C@H]1CC=C(C)C(=O)C1 [compound 15, (S)-(+)-carvone] | 34 |
| CCCCCCCCO [compound 37, 1-octanol] | 46 |
| CCCCOC(=O)CC [compound 31, butyl propionate] | 60 |
| O=Cc1ccccc1 [compound 9, benzaldehyde] | 94 |
| C=CC(=O)OCCCC [compound 40, butyl acrylate] | 63 |
| OCc1ccccc1 [compound 16, benzyl alcohol] | 33 |
| COC(=O)c1ccccc1O [compound 10, methyl salicylate] | 138 |
| CC/C=C\CCOC(C)=O [compound 43, (Z)-3-hexenyl acetate] | 91 |
